Results published in paper PMC11211441, “Distributable, metabolic PET reporting of tuberculosis” (Nature Communications, 2024).
Several values for one entry are separate records, joined by “and”; a condition that tells them apart may be missing. Equal entries are not always repeated.

What was measured:
[1] = test system: mammalian (porcine) trehalase; experiment: Trehalase degradation assay; format: in vitro ADME; settings: 0.3 units/mL trehalase, 10 mM substrate; for degradation by trehalase (Figure S5, released glucose): pH 5.7, 37 °C, 60 minutes
Description: The metabolic stabilities of the remaining three analogs, [^18F]FDT, 4-epi-[^18F]FDT and 6-[^18F]FDT were tested. Although, human trehalose-degrading trehalase activity is low and restricted primarily to the brush-border of the kidney where it is thought to be GPI-anchored[28],[32], it can be elevated in some diseases, therefore we also tested degradation of the analogs in vitro using high concentrations of mammalian (porcine) trehalase (0.3 units/mL, 10 mM substrate, Fig. S5). […]
Figure S5. Trehalase Assays.
Substrates were prepared to a final concentration of 10 mM in 0.05 M citric acid, pH 5.7 including trehalase stock solution (0.3 units/mL). The reaction mixture was incubated at 37 °C for 60 minutes, and then quenched with an equal volume of 0.1 M Tris, pH 7.5. Released glucose was measured with glucose assay kit (see Methods).

[2] = test system: Mtb-infected marmoset lung lesions; experiment: PET/CT imaging of tracer uptake in marmoset TB model; format: in vivo; settings: for SUV/CMR / TGA/CMR: FDG, individual lesions
Description: Rabbits and marmosets at NIAID were anaesthetized and maintained during imaging[49],[67]. Syringes of FDG or FDT were measured in a dose calibrator immediately before and after injection, targeting = injected doses of 2 mCi/kg. During uptake and distribution of the probes, a CT scan from the base of the skull spanning the lungs and the upper abdominal cavity was acquired as described for each species on a helical eight-slice Neurological Ceretom CT scanner (NeuroLogicia, Danvers, MA) operated as part of a hybrid pre-clinical PET/CT system utilizing a common bed. The animal bed was then retracted into the microPET gantry (MicroPET Focus 220, Siemens Preclinical Solutions, Knoxville, TN) and sixty minutesβ ± 5 min post FDG injection, a series of 2 or 3, 10 min emission scans with 75 mm thick windows with a 25 mm overlap were acquired caudal to cranial. […] For the blocking studies, injections of 150 µg of [^19F]FDT synthesized as described above were administered 60 min and 5 min prior to the [^18F]-FDT tracer and the scans were acquired as before. Two animals were used in the blocking studies with one animal receiving the blocking agent while the other was administered saline only prior to the FDT tracer. Two days later, the administrations were reversed so that the second animal received the blocking agent. The emission data for all scans were processed and corrected. Cynomolgus macaques (n = 3) at the University of Pittsburgh were imaged using a Siemens microPET Focus 220 PET scanner and a Neurological Ceretom CT scanner. Paired FDG and FDT scans were collected on only 2 macaques pre-necropsy. Scans were viewed using OsiriX (Pixmeo, Geneva, Switzerland) to identify and analyze individual granulomas as described previously.
Dense lesion centers were subsequently identified for inclusion in the lung region manually and the program calculated the FDG signal parameters. In addition, each lesion within the lung was marked with a 3-D region of interest (ROI). In uninfected marmosets administered FDT, ROIs with a similar-volume (dia. 5 to 7 mm) were distributed in the lung as mock lesions according to the method of Ordonez et al.[70] and the SUV statistics for the ROIs were captured into excel sheets for analysis.

[3] = 1.5 hr voiding window; cited from earlier work
[4] = [19F]FDT clearance and in vivo stability in marmosets (plasma LC-MS, 19F NMR); parameters: species or system common marmosets; settings: common marmoset, plasma, iv, 20 mg, marmosets M1-M3 (duplicate measurements), 20 mg IV
Description: In order to determine [^19F]FDT metabolism in vivo, we assessed concentration vs time in two mammalian species: common marmosets and C57BL/6 mice. For marmosets weighing between 290.3–340.3 g, 20 mg of sterile-filtered FDT in PBS was injected IV (n = 3) and ~200 μL blood samples were taken from the femoral vein at 0 min, 5 min, 30 min, 60 min, 90 min and 180 min post injection. Samples were spun (4000 rcf for 10 mins at room temp) to separate red cell mass from plasma. Plasma portion was separated and stored at −80 °C for further analysis. Similarly, mice weighing from 18.7–20.5 g were injected (n = 5) with 5 mg of filter-sterilized FDT solution dissolved in PBS solution, pH 7.4. Mandibular blood samples were taken at 2 min, 15 min, 30 min and 45 min post injection. For the last sample in each mouse, the animal was bled out to get maximum sample for NMR analysis. Final urine samples were collected in 3 out of 5 mice through free catch. Blood samples were centrifuged (6500 rcf for 4 mins at room temp) to separate red cell mass from plasma, and plasma was separated and stored at −80 °C prior to analyzes.
Plasma samples from −80 °C were thawed on ice and mixed with 80% acetonitrile to precipitate plasma proteins and other biomolecules. Samples were centrifuged at 10,000 g, 4 °C for 10 min.
Figure S37. [19F]FDT Clearance and In Vivo Stability in Non-human Primates […]
A, B) 20 mg [19F]FDT was injected into marmosets (A, n=3 biological replicates, each measured in duplicate) and 5 mg FDT injected into mice (B, n=5 biological replicates, each measured in triplicate). […]
marmosets (A) and mice (B).
[19F]FDG was detected, consistent with the only low levels of metabolism seen with [18F]FDT in rabbits (see Figure S3G). C-F) We further analyzed the potential degradation of FDT into FDG by 19F NMR spectroscopy in marmoset plasma (C) sample from 5 min time point, mouse plasma (D) sample from 30 min time point and mouse urine samples from 30 min (E) and 45 min (F) time points, respectively. In all these samples only [19F]FDT was observed (d -201.2). The data points are average values from three replicates with error bars ± SD.
(1 picture or pasted object on this page, not shown here)

[5] = Human microsomal stability assay; settings: human, microsomes, pH 7.4, %Remaining, human liver microsomes
Description: Microsomal stability assay was carried out as described previously. In brief, 10 x reduced nicotinamide adenine dinucleotide phosphate (NADPH)-regenerating system was freshly prepared by dissolving 37.2 mg glucose-6-phosphate (Sigma) in 1 mL of 100 mM potassium phosphate buffer, 39.8 mg nicotinamide adenine dinucleotide phosphate (NADP, Sigma) in 1 mL of potassium phosphate buffer, 11.5 U glucose-6-phosphate dehydrogenase (Thermo) in 1 mL of potassium phosphate buffer and 26.8 mg MgCl2.6H2O (Sigma) in 1 mL of distilled water. All these solutions were combined and kept on ice. […] After 5 min, 18 µL of NADPH-regenerating system was added to initiate reaction. Immediately after adding the NADPH regenerating system, 50 µL, 0 min time point sample was taken and quenched with equal volume of ice-cold methanol. Similarly further samples were taken at 10 min, 30 min, 60 min, 90 min and 120 min. Samples were centrifuged at 10,000 g at 4 °C for 10 min. […] After incubating the reaction mix at 37 °C for 5 min, 36 µL of NADPH regenerating system was added to initiate the reaction. 50 µL samples were taken at 0 min, 2.5 min, 5 min, 10 min, 20 min, 40 min and 80 min and reactions were quenched by adding equal amount of ice-cold acetonitrile and kept on ice.

[6] = In vivo metabolism of 18F-labeled trehalose analogs in rabbits
Description: Finally, putative degradation was also probed directly in vivo using both Mtb-infected and naïve rabbits.
Blood (100 µL), urine (100–300 µL) and lesion samples were collected from animals and diluted 2:1 v/v with acetonitrile to sterilize them. These samples were then vortexed, centrifuged and the supernatant analyzed by either HPLC or TLC. The TLC silica gel plates used to assay these metabolism samples and lesion extracts were 150 Å Silica Gel HL 250 µm 10 ×20 cm channeled plates with a pre-adsorbent zone purchased from Analtech/iChromatography (Newark, DE). TLC plates were visualized via exposure to a phosphor screen for 16 h prior to imaging using a phosphor screen and Typhoon FLA7000 (GE Healthcare, Pittsburgh PA) or using a BioScan AR-2000 reader.

[7] = substrate: O=C[C@H](O)[C@@H](O)[C@H](O)[C@H](O)COP(=O)(O)O; experiment: OtsA^Sf enzyme kinetic assay (NADH-linked continuous); format: biochemical, E. coli; settings: other: enzyme expressed from Spodoptera frugiperda, coupled-enzyme spectrophotometric assay, 25 °C, pH 7.5
Description: OtsA kinetic parameters were also determined by monitoring the formation of T6P by NADH-linked continuous assay.
60 °C with a nitrogen flush.
OtsA Enzyme kinetic assay
spectrophotometric assay.

## OC[C@H]1O[C@H](O[C@H]2O[C@H](CO)[C@@H](O)[C@H](O)[C@H]2O)[C@H](O)[C@@H](O)[C@@H]1O [trehalose, reference compound]
[1]
  degradation by trehalase: complete degradation
  degradation by trehalase (Figure S5, released glucose): 100

## 2-[^18F]fluoro-2-deoxy-D-glucose [[^18F]FDG]
[2]; 4 wks HRZE
  SUV/CMR: 12.2544 and 1.845 and 5.193 and 8.368 and 5.63 and 1.286 and 5.952 and 5.153 and 7.3616
  TGA/CMR: 11.4228 and 0.1147 and 1.936 and 8.84 and 2.799 and 0.1598 and 9.617 and 2.242 and 13.7241
[2]; Pre-Rx
  SUV/CMR: 5.878 and 2.269 and 2.719 and 4.3218 and 3.722 and 2.294 and 3.185 and 2.868 and 3.6021
  TGA/CMR: 7.811 and 0.2621 and 2.6706 and 8.989 and 4.301 and 0.5302 and 6.073 and 2.651 and 5.8274
[2]; marmosets, 4 weeks HRZE
  uptake response to treatment (SUVs and TLG): mixed, refractory and inconsistent uptake
[3]
  dose, adrenals: 0.013 mSv/MBq
  dose, kidneys: 0.020 mSv/MBq
  dose, urinary bladder wall: 0.086 mSv/MBq

## OC[C@H]1O[C@H](O[C@H]2O[C@H](CO)[C@@H](O)[C@H](O)[C@H]2F)[C@H](O)[C@@H](O)[C@@H]1O [FDT]
[4]; 5 min post injection
  concentration at 5 min: 551 µM
[4]; 30 min post injection
  concentration at 30 min: 250 µM
[4]; 61 min post injection
  concentration at 61 min: 173 µM
[4]; 93 min post injection
  concentration at 93 min: 97.1 µM
[5]; 0 min
  remaining at 0 h, 3 µM: 100%
[5]; 5 min
  remaining at 5 min, 3 µM: 74.5%
[5]; 10 min
  remaining at 10 min, 3 µM: 58.5%
[5]; 20 min
  remaining at 20 min, 3 µM: 55.3%
[5]; 40 min
  remaining at 40 min, 3 µM: 56.6%
[5]; […]
  remaining at 2.5 min, 3 µM: 80.1%

## OC[C@H]1O[C@H](O[C@H]2O[C@H](CO)[C@H]([18F])[C@H](O)[C@H]2O)[C@H](O)[C@@H](O)[C@@H]1O [4-epi-[^18F]FDT]
[6]; Control Rabbits, 0 min
  epi-4-Ftre (%): 100%
[6]; Control Rabbits, 15 min
  epi-4-Ftre (%): 87%
[6]; Control Rabbits, 30 min
  epi-4-Ftre (%): 78%
[6]; Control Rabbits, 45 min
  epi-4-Ftre (%): 87%
[6]; Control Rabbits, 60 min
  epi-4-Ftre (%): 73%
[6]; Control Rabbits, 90 min
  epi-4-Ftre (%): 82%
[6]; Control Rabbits, 120 min
  epi-4-Ftre (%): 76%
[6]; Control Rabbits, 180 min
  epi-4-Ftre (%): 71%
[6]; Infected Rabbits, 0 min
  epi-4-Ftre (%): 100%
[6]; Infected Rabbits, 15 min
  epi-4-Ftre (%): 89%
[6]; Infected Rabbits, 30 min
  epi-4-Ftre (%): 87%
[6]; Infected Rabbits, 45 min
  epi-4-Ftre (%): 84%
[6]; Infected Rabbits, 60 min
  epi-4-Ftre (%): 81%
[6]; Infected Rabbits, 90 min
  epi-4-Ftre (%): 76%
[6]; Infected Rabbits, 120 min
  epi-4-Ftre (%): 91%
[6]; Infected Rabbits, 180 min
  epi-4-Ftre (%): 90%
[6]; rabbits, after 3 h
  metabolism: 30%

## OC[C@H]1O[C@H](O[C@H]2O[C@H](CO)[C@@H](F)[C@H](O)[C@H]2O)[C@H](O)[C@@H](O)[C@@H]1O [4-epi-[^19F]FDT]
[1]
  degradation by trehalase: little or no degradation
  degradation by trehalase (Figure S5, released glucose): 0

## OC[C@H]1O[C@H](O[C@H]2O[C@H](CF)[C@@H](O)[C@H](O)[C@H]2O)[C@H](O)[C@@H](O)[C@@H]1O [6-[^19F]FDT]
[1]
  degradation by trehalase: 14%
  degradation by trehalase (Figure S5, released glucose): 14

B1: OtsA^Sf (Escherichia coli K-12) (protein)
chain: MSRLVVVSNRIAPPDEHAASAGGLAVGILGALKAAGGLWFGWSGETGNEDQPLKKVKKGNITWASFNLSEQDLDEYYNQFSNAVLWPAFHYRLDLVQFQRPAWDGYLRVNALLADKLLPLLQDDDIIWIHDYHLLPFAHELRKRGVNNRIGFFLHIPFPTPEIFNALPTYDTLLEQLCDYDLLGFQTENDRLAFLDCLSNLTRVTTRSAKSHTAWGKAFRTEVYPIGIEPKEIAKQAAGPLPPKLAQLKAELKNVQNIFSVERLDYSKGLPERFLAYEALLEKYPQHHGKIRYTQIAPTSRGDVQAYQDIRHQLENEAGRINGKYGQLGWTPLYYLNQHFDRKLLMKIFRYSDVGLVTPLRDGMNLVAKEYVAAQDPANPGVLVLSQFAGAANELTSALIVNPYDRDEVAAALDRALTMSLAERISRHAEMLDVIVKNDINHWQECFISDLKQIVPRSAESQQRDKVATFPKLA
notes: His tag (type from Ni-NTA purification and anti-His blot) (C); made in house; host or cells: Spodoptera frugiperda Sf9 cells (Bac-to-Bac baculovirus)
[7]
  Km: 4.9 ± 0.5 mM
  kcat: 57.5 ± 2.3 s⁻¹
  kcat/Km: 11900 M⁻¹ s⁻¹
